Experimental data published in US11173147B2, “Prophylactic or therapeutic agent for delirium” (priority 2016, dated 2021).

Assays:
plasma melatonin = assay: Effect on nocturnal plasma melatonin concentration in rats; type: in vivo, rat; details: Wistar rats, 3 mg/kg orally once per day for 7 days, vs vehicle, FIG. 5
Method: Effect of Compound A on Nocturnal Plasma Melatonin Concentration in Rats
9-Week-old male Wistar rats (CLEA Japan Inc.) were used for this study. All rats (n=12) were bred in groups of 2 to 5 animals per cage in a light control room (lights on at 7:00 and 12 hour light/dark cycle) prior to the test and made to get used to it for about two weeks. Food and tap water were freely provided.
A solvent or compound A was orally administered to 11-week-old rats at a dose of 3 mg/kg once per day at 17:00-17:15 for 7 days. After the final treatment, blood samples (500 μL) were successively collected from the tail artery of each rat at 20:00 (ZT (Zeitgeber Time)) 13), 22:00 (ZT15), 0:00 (ZT17), 2:00 (ZT19), 4:00 (ZT21), 6:00 (ZT23) and 8:00 (ZT25) in EDTA-2Na-containing tube (Lot No. MP0831, CAPIJECT (registered trade mark), Terumo Corporation, Japan). The blood samples were centrifuged at 15,000 rpm, 4° C. for 5 min and the supernatant (200 μL) was preserved at -80° C. until they were treated for radioimmunoassay. Melatonin concentration was measured using a kit (Lot No. 2428.10, BUHLMANN Laboratories AG, Switzerland) commercially available from T.N. TECHNOS., Limited, Japan.
The data are shown in average ±SEM (6 rats in each group). The statistical significance between samples and in samples was determined by repeated measurement ANOVA in which P<0.05 was significant.

Clock mutant mouse = assay: Effect on phase delay in Clock mutant mouse (rotating basket exercise); type: in vivo; details: for % in the initial dark period (rotating basket exercise) / % in the initial dark period (rotating basket exercise), recovery of decrease: vs solvent; for % in the initial dark period (rotating basket exercise): FIG. 3; for exercise starting time: vs average of 7-day preliminary treatment period; for % in the initial dark period (rotating basket exercise), recovery of decrease: FIG. 1
Method: Effect on Phase Delay of Compound A in Clock Mutant Mouse
Male Clock mutant mouse (Trans Genic Inc.) and male ICR mouse (CLEA Japan Inc.) were used as a wild-type control in this study. All animals were bred in groups of 4 or 5 animals per cage in a light control room (lights on at 7:00 and 12 hour light/dark cycle) prior to behavioral test. Food and tap water were freely provided.
21-Week-old and 23-week-old mice were used in experiment 1 and experiment 2 (in each experiment, Clock mutant mouse; n=36, ICR mouse; n=12). In both experiments, the animals were placed in a test room and individually bred under 10 hr/14 hr light/dark cycle (lights on at 7:00 and lights off at 17:00) in a cage provided with a rotating basket (diameter 14.5 cm). In addition, 15 Clock mutant mice and 10 ICR mice were prepared as extra animals in the same room in each experiment. Data on the rotating basket exercise were collected every minute and analyzed using Clocklab (registered trade mark) (Actimetrics, Evanston, Ill., USA).
The animals were first acclimated to a new light/dark cycle for about 2 weeks. In the acclimation period, a total number of exercises in 24 hours (total number) for each day, and the percentage of the number of exercise in the light period (7:00 to 17:00) (percentage in the light period) in the total number were measured.
In the preliminary treatment period, the mice were orally administered with a solvent (0.5% methylcellulose solution) at 15:45-16:19 once daily for 2 weeks for acclimation to administration prior to the drug treatment period. […] The solvent or compound A was orally administered to the animals at 15:45 to 16:13 once a day for 7 days.
In the drug treatment period, % in the initial dark period was measured, and the exercise start time was measured using same as an additional index in the Clock mutant mice. Using the aforementioned parameter, the minimum effective dose of compound A in these experiments (experiments 1 and 2) was determined.
The data are shown in average ±SEM. A statistical significance between ICR mouse and Clock mutant mouse was determined by Student's t-test (experiment 1) or Aspin-Welch test (experiment 2) in which P≤0.05 was significant. For analysis of multiple administration of compound A, the statistical significance was determined by one-sided Williams' 20 test (experiments 1 and 2) in which P≤0.025 was significant.

delirium [1] = details: five patients diagnosed as having delirium; cited from earlier work
delirium [2] = details: of 10 patients over 65 years of age who developed delirium with heart failure etc.; cited from earlier work

| SMILES | level of melatonin concentration (plasma) (plasma melatonin) | start of plasma melatonin (plasma melatonin) | % in the initial dark period (rotating basket exercise) (Clock mutant mouse; 0.003 mg/kg orally once a day for 7 days) | % in the initial dark period (rotating basket exercise) (Clock mutant mouse; 0.03 mg/kg orally once a day for 7 days) | exercise starting time (Clock mutant mouse; 0.03 mg/kg repetitive oral administration, FIG. 4) | % in the initial dark period (rotating basket exercise), recovery of decrease (Clock mutant mouse; 0.3 mg/kg orally once a day for 7 days) | exercise starting time (Clock mutant mouse; 0.3 mg/kg repetitive oral administration, FIG. 2) | % in the initial dark period (rotating basket exercise), recovery of decrease (Clock mutant mouse; 1 mg/kg orally once a day for 7 days) | exercise starting time (Clock mutant mouse; 1 mg/kg repetitive oral administration, FIG. 2) | minimum effective dose (phase retardation) (Clock mutant mouse; oral, once a day for 7 days) | recovery from delirium symptoms (delirium [1]) | patients in whom delirium was improved (delirium [2]) |
| --- | --- | --- | --- | --- | --- | --- | --- | --- | --- | --- | --- | --- |
| CC(=O)NCC[C@@H]1CCc2ccc3nc(C)oc3c21 [compound A, (S)—N-[2-(2-methyl-7,8-dihydro-6H-indeno[5,4-d][1,3]oxazol-8-yl)ethyl]acetamide] | significantly increased | advanced | did not have a significant effect | did not have a significant effect | significantly advanced | improvement effect was significant | significantly advanced | improvement effect was significant | significantly advanced | 0.03 mg/kg |  |  |
| CCC(=O)NCC[C@@H]1CCc2ccc3c(c21)CCO3 [ramelteon, (S)—N-[2-(1,6,7,8-tetrahydro-2H-indeno[5,4-b]furan-8-yl)ethyl]propionamide] |  |  |  |  |  |  |  |  |  |  | recovered from delirium symptoms the next day | 6 patients |
